Laboratory results: article PMC10960024, “Diindoles produced from commensal microbiota metabolites function as endogenous CAR/Nr1i3 ligands” (Nature Communications, 2024)

Key:
[1] = test system: mCAR target genes (cyp2b10, cyp3a11, sult2a1) in mouse liver; assay: qPCR of mCAR target genes in mouse liver after intraperitoneal treatment; type: in vivo; settings: for cyp2b10 expression in liver, wild-type mice: 25 mg/kg i.p. once daily for three days; for sult2a1 expression in liver: WT or Nr1i3-/- mice; for cyp3a11 expression in liver: mouse liver, with or without And pre-treatment
Method: (§1) 12–15 week-old C57BL/6 J mice were obtained from Jackson Laboratories and were housed on a standard 12 h light/dark cycle. Nr1i3^−/− mice with C57BL/6 J background were obtained from David Moore’s lab (PMID: 11057673) at Baylor College of Medicine, and used at 13–26 weeks of age. Wild-type male, female and Nr1i3^−/− male mice were used in this study, due to known sex-specific CAR activities. Mice were housed in groups of 2–5 mice per cage on a standard 12 h light/dark cycle and fed with rodent chow diet (Inotiv, Teklad rodent diet 2918). Temperature was maintained at 21 °C with a range of 21–24 °C and humidity at 16–51%. National Institute of Health guidelines for the care and use of laboratory animals were followed with all experiments performed as directed by the Institutional Animal Care and Use Committee at the University of Illinois, Urbana-Champaign (UIUC, IACUC protocol: 22183). Mice were acclimatized to the UIUC mouse facility for 2 weeks prior to experiments. DIM and DIE were dissolved in 5% DMSO in corn oil and injected intraperitoneally at 25 mg/kg once daily for three days. After 4 h of the third injection, mice were sacrificed to collect serum, livers and intestines. TCPOBOP was dissolved in corn oil and injected intraperitoneally at 3 mg/kg once and the livers collected after 3 days for further studies. When used to block CAR activity, 100 mg/kg androstenol was injected intraperitoneally 15 min prior to the first DIM or DIE treatment. RNA from mice livers was isolated using TRIzol (Invitrogen) reagent using the manufacturer’s instructions. 3–5 µg of RNA was used to synthesize cDNA with random primers (NEBioLabs) and Maxima Reverse Transcriptase kits (Thermo Fisher Scientific). cDNA was further diluted, and 50 ng was used for SYBR green (Thermo Fisher Scientific) based qRT-PCR. Relative gene expression was calculated by the delta Ct method and normalized to 36b4 levels as loading controls. qPCR primers for gene expression analysis are listed in Supplementary Table 3.

GAL4-hCAR LBD = target: T1, GAL4-hCAR LBD (Homo sapiens, UniProt Q14994); assay: HEK293T GAL4-hCAR dual transfection reporter assay with PK11195 (antagonist displacement); type: cell-based; settings: read-out: HEK293 GAL4-hCAR EC50
T1 construct: chimeric yeast GAL4 DBD fused to an hCAR LBD; expressed in transfected cells; host or cells: HEK293T (ATCC, CRL-3216)
T1 sequence (Q14994 109-352 limits assumed): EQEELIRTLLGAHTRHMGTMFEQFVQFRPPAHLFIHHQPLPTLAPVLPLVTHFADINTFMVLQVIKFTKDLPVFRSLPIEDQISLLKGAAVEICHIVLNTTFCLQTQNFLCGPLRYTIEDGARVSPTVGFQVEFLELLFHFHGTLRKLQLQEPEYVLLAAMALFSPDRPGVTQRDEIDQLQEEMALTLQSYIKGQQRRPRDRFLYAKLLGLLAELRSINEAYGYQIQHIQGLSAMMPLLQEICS
Source text: The GAL4-hCAR, UAS-Luc, pcDNA-GAL4, pGL4-Renilla-Luc and pGEM plasmids were generously provided by Dr. David Mangelsdorf. The GAL4-hCAR plasmid encodes a constitutively expressed chimeric yeast GAL4 DBD fused to an hCAR LBD. The UAS-Luc plasmid encodes a Firefly luciferase reporter under the control of a GAL4 response element. The pcDNA plasmid encodes a constitutively expressed GAL4 DBD and was used as a control vector to determine non-specific luminescence in all HEK293T cellular reporter assays. The pGL4-Renilla-Luc plasmid encodes a constitutively expressed Renilla luciferase reporter and was used as a transfection control in the HEK293T cellular reporter assays.
HEK293T cells (ATCC, CRL-3216) were seeded at a density of 40,000 cells per well in white flat-bottom 96-well microplates (Greiner CellStar, 655073) in Dulbecco’s Modified Eagle Medium (DMEM) (2.5 g/l glucose) supplemented with 10% stripped fetal bovine serum with 100 units/ml of penicillin and incubated for 24 h at 37 °C. Transfection was carried out using 0.3 µL/well of Lipofectamine 2000 (Thermo Fisher Scientific, 11668019). Cells were transfected with 10 ng/well of either pcDNA or GAL4-hCAR, 50 ng/well of UAS-Luc, 5 ng/well of pGL4-Renilla-Luc, and 85 ng/well of pGEM for a total of 150 ng/well of DNA. […] Cells were incubated for 16-hours to allow build-up of luciferase and then processed using the Dual-Glo Luciferase Assay System (Promega, E2940) as per the manufacturer’s instructions. Incubations were performed in four technical replicates.

[2] = target: T2, His-tagged CAR-LBD-SRC1 fusion protein (Homo sapiens, UniProt Q14994); assay: Isothermal titration calorimetry (ITC); type: binding; settings: 25 °C; ligand 50 μM; mean of two independent experiments
T2 construct: The human CAR LBD (Lys^108 – Ser^352) was amplified by PCR from cDNA; HIS6; made in house; host or cells: E. coli BL21(DE3)
T2 sequence (Q14994 108-352): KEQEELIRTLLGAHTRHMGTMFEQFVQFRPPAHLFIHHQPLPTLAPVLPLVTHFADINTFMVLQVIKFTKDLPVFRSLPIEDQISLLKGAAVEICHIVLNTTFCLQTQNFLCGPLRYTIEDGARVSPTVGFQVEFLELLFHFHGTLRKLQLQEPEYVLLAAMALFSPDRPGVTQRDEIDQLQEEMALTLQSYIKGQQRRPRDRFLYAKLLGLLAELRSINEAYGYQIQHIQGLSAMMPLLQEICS
Method: Purified hCAR-SRC1 protein (200–250 µM) was dissolved in 120 μL of PBS and supplemented with 0.5% DMSO. All experiments were performed in a MicroCal Auto-iTC200 instrument (Malvern Panalytical, Marlvern, United Kingdom) at 25 °C. Ligands were used at a concentration of 50 μM. Protein was titrated into cells in a series of 19 injections (injection 1 = 0.4 µL, injection 2–19 = 2 µL) 180 s apart. Control experiments performed by injection of the potein into […] yielded insignificant heats of dilution, and heat responses were subtracted. Integrated heat effects were analyzed using Microcal Origin 7 software (Malvern Instruments).

hCAR1+A = target: T3, hCAR1+A (Homo sapiens, UniProt Q14994, INS274A); assay: HepG2 CYP2B6-2.2 kb reporter with hCAR1+A; type: cell-based; settings: 1, 5 and 10 µM, 24 h
T3 construct: expressed in transfected cells; host or cells: HepG2 (ATCC, HB-8065)
T3 sequence (Q14994 with tags, fused parts or gaps isoform Q14994-2 INS270A): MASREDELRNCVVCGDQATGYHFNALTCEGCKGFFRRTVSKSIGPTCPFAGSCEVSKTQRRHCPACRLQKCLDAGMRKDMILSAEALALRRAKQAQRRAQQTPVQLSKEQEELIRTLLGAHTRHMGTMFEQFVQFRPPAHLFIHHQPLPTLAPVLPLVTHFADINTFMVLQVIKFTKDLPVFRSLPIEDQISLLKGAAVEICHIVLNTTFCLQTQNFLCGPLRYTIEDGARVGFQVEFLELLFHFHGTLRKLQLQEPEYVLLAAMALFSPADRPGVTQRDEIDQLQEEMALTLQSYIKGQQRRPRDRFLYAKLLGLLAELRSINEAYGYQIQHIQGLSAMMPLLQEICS
T3 sequence (P19793 whole entry partner): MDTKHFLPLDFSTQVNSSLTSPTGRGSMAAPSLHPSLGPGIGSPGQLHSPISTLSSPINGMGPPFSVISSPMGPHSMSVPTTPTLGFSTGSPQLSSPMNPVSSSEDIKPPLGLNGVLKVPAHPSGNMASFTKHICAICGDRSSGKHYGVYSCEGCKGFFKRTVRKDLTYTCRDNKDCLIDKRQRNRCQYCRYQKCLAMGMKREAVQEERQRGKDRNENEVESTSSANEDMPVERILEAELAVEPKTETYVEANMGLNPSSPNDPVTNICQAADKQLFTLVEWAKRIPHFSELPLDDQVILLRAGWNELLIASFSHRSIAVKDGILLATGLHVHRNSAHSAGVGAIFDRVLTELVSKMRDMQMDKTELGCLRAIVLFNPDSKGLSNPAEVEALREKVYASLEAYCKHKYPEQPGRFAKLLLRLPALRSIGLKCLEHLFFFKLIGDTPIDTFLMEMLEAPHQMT
Source text: Activities of both firefly and renilla luciferases were detected using a Dual-Luciferase Kit (Promega).

Liver histology (H&E) = type: in vivo
Method: as §1, with “3. […]” for “3.”

[3] = Liver-to-body weight ratio after treatment; type: in vivo
Method: as §1

SMILES | cyp2b10 expression in liver, wild-type mice [1] | sult2a1 expression in liver [1] | cyp3a11 expression in liver [1] | EC50 (GAL4-hCAR LBD) [µM] | Kd [2] [µM] | hCAR1+A activity (CYP2B6 reporter) (hCAR1+A) | liver histology (H&E) findings (Liver histology (H&E); after treatment) | liver weight / liver-to-body weight ratio ([3]; post-treatment, compared to control) | liver histology (H&E) findings (Liver histology (H&E); mouse, in vivo) | liver weight / liver-to-body weight ratio ([3]; mouse, in vivo)
CC(c1c[nH]c2ccccc12)c1c[nH]c2ccccc12 [DIE, 3,3’-diindolylethane] | robustly induced | did not show significant responses | did not affect | 0.72 | 0.25 | significantly boost hCAR1+A activity | no increase in hepatocyte size, cytoplasmic swelling, obvious damage or inflammation | no significant changes |  | 
c1ccc2c(Cc3c[nH]c4ccccc34)c[nH]c2c1 [DIM, diindolylmethane] | robustly induced | did not show significant responses | did not affect | 1.74 | 3.9 | significantly boost hCAR1+A activity |  |  | no increase in hepatocyte size, cytoplasmic swelling, obvious damage or inflammation | no significant changes
